Data on ten compounds can be found in ChEMBL document CHEMBL1127958, “Dual metalloprotease inhibitors. III. utilization of bicyclic and monocyclic diazepinone based mercaptoacetyls” (Bioorg Med Chem Lett, 1994).

Each structure is given as a SMILES string.

By ED50 is commonly meant the dose that gives a 50% effect, or the effect in half of the subjects.

Sequence of Angiotensin-converting enzyme (Rattus norvegicus) (P47820 whole entry, looked up): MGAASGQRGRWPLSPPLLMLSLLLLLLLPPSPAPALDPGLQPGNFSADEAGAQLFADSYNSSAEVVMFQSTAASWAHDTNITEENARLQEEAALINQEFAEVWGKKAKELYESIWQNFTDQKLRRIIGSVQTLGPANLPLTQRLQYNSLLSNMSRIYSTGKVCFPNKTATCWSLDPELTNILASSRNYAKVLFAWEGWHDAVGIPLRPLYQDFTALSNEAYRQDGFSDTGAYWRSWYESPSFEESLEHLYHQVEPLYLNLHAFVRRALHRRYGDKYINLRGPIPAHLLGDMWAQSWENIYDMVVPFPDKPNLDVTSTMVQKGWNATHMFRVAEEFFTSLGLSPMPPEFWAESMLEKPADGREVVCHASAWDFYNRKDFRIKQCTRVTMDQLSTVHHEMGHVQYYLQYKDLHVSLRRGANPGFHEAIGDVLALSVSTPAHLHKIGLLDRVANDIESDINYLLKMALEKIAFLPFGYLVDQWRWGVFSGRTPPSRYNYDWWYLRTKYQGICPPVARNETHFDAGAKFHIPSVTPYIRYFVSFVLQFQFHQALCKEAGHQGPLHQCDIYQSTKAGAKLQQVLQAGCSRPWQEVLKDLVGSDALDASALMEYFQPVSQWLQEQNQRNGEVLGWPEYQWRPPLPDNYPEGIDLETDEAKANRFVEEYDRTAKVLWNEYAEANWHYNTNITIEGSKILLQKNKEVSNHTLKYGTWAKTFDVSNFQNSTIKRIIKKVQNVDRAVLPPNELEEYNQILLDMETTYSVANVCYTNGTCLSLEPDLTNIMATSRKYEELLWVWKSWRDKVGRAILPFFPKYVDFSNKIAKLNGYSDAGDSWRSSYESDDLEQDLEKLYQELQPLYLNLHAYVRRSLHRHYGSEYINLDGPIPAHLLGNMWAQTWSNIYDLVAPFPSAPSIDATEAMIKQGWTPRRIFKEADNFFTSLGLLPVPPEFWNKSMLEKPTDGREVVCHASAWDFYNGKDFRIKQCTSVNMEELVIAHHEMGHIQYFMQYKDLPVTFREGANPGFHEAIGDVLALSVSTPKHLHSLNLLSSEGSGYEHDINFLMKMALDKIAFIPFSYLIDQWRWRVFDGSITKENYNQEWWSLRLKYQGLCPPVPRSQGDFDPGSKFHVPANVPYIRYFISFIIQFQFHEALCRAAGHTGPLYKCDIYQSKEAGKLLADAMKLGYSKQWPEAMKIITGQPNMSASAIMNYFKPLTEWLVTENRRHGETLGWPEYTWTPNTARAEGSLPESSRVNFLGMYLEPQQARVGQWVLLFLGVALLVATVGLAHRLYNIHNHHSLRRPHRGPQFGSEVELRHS

In the first assay the target is Neprilysin (Homo sapiens, UniProt P08473). Nature of the assay: In vitro inhibitory activity against neutral endopeptidase (NEP) was determined. The following applies: read-out: I50.
Sequence of Neprilysin (P08473 whole entry): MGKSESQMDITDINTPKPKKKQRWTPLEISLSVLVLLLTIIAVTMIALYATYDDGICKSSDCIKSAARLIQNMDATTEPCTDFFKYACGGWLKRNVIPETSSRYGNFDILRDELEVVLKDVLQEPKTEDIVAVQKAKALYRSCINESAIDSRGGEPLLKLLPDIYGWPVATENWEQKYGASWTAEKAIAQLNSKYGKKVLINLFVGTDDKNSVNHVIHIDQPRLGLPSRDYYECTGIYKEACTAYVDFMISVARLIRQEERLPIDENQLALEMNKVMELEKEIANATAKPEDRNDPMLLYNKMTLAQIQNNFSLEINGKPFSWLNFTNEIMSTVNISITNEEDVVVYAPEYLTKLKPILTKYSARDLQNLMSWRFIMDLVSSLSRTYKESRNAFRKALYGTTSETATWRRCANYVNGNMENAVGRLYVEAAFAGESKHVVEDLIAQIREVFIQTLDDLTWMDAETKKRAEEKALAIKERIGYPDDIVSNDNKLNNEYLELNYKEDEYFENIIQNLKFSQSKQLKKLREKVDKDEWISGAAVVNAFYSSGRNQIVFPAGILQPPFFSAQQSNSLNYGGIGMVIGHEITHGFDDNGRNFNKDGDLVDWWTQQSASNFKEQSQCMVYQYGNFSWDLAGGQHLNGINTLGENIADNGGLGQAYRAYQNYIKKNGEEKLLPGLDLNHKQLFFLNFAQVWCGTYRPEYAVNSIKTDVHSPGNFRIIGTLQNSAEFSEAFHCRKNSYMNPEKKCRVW
Take `CN1C(=O)CC[C@H](NC(=O)[C@@H](S)Cc2ccccc2)C(=O)N1CC(=O)O`: the IC50 is 55 nM.

Turning to `O=C(N[C@H]1CCC(=O)N2CC[C@@H](C(=O)O)N2C1=O)[C@@H](S)Cc1ccccc1`, the IC50 is 140 nM.

In the case of `O=C(O)CN1NCCC[C@H](NC(=O)[C@@H](S)Cc2ccccc2)C1=O`, the IC50 is 486 nM.

With `CCCN1CCC[C@H](NC(=O)[C@@H](S)Cc2ccccc2)C(=O)N1CC(=O)O`, the IC50 worked out at 1490 nM.

Turning to `CCCN1C(=O)CC[C@H](NC(=O)[C@@H](S)Cc2ccccc2)C(=O)N1CC(=O)O`, the IC50 came out at 1920 nM.

For `CN1CCC[C@H](NC(=O)[C@@H](S)Cc2ccccc2)C(=O)N1CC(=O)O`, the IC50 amounted to 484 nM.

For the compound `O=C(N[C@H]1CCCN2CCC[C@@H](C(=O)O)N2C1=O)[C@@H](S)Cc1ccccc1`, the IC50 came out at 3 nM.

Regarding `O=C(N[C@H]1CCCN2CC[C@@H](C(=O)O)N2C1=O)[C@@H](S)Cc1ccccc1`, the IC50 came to 22 nM.

Consider `O=C(N[C@H]1CCC(=O)N2CCC[C@@H](C(=O)O)N2C1=O)[C@@H](S)Cc1ccccc1`, for which the IC50 turned out to be 16 nM.

The next assay concerns Rattus norvegicus. Nature of the assay: In vivo effective dose against angiotensin I induced pressor response after intravenous administration in normotensive rats. Format: functional.
Conditions: not given
`O=C(O)CN1C(=O)[C@@H](NC(=O)[C@@H](S)Cc2ccccc2)CCc2ccccc21`: it took a dose of 0.02 µmol/kg to reach the 50% effect level (ED50).

In turn, `CN1C(=O)CC[C@H](NC(=O)[C@@H](S)Cc2ccccc2)C(=O)N1CC(=O)O` showed an ED50 of 0.13 µmol/kg.

Take `O=C(N[C@H]1CCCN2CCC[C@@H](C(=O)O)N2C1=O)[C@@H](S)Cc1ccccc1`: the median effective dose (ED50) stood at 0.01 µmol/kg.

Consider `O=C(N[C@H]1CCCN2CC[C@@H](C(=O)O)N2C1=O)[C@@H](S)Cc1ccccc1`, for which the ED50 was 0.12 µmol/kg.

`O=C(N[C@H]1CCC(=O)N2CCC[C@@H](C(=O)O)N2C1=O)[C@@H](S)Cc1ccccc1` returned an ED50 of 0.23 µmol/kg.

A further assay addresses Angiotensin-converting enzyme (Rattus norvegicus) (UniProt P47820). Nature of the assay: In vitro inhibitory activity against angiotensin converting enzyme (ACE) in rat was determined. The following applies: read-out: I50.
On to `O=C(O)CN1C(=O)[C@@H](NC(=O)[C@@H](S)Cc2ccccc2)CCc2ccccc21`, for which the IC50 amounted to 12 nM.
